Assay results from US20240156800A1, “EP300 DEGRADER AND USES THEREOF IN NEUROBLASTOMA” (DANA-FARBER CANCER INSTITUTE, INC., priority 2021, published 2024).

Tests used:
EP300 = biological target: T1, EP300 (Homo sapiens, UniProt Q09472); assay: SILAC mass spectrometry of the nuclear proteome of Kelly cells (EP300); format: cell-based; details: 500 nM, 24 h, nuclear extract, p=3.3×10^−5
T1 construct: Cells growing in culture were lysed for whole cell lysates; endogenous in cells; host or cells: Kelly, NGP, SIMA, BE2C neuroblastoma cells; Kelly xenografts in NSG mice
T1 sequence (Q09472 whole entry): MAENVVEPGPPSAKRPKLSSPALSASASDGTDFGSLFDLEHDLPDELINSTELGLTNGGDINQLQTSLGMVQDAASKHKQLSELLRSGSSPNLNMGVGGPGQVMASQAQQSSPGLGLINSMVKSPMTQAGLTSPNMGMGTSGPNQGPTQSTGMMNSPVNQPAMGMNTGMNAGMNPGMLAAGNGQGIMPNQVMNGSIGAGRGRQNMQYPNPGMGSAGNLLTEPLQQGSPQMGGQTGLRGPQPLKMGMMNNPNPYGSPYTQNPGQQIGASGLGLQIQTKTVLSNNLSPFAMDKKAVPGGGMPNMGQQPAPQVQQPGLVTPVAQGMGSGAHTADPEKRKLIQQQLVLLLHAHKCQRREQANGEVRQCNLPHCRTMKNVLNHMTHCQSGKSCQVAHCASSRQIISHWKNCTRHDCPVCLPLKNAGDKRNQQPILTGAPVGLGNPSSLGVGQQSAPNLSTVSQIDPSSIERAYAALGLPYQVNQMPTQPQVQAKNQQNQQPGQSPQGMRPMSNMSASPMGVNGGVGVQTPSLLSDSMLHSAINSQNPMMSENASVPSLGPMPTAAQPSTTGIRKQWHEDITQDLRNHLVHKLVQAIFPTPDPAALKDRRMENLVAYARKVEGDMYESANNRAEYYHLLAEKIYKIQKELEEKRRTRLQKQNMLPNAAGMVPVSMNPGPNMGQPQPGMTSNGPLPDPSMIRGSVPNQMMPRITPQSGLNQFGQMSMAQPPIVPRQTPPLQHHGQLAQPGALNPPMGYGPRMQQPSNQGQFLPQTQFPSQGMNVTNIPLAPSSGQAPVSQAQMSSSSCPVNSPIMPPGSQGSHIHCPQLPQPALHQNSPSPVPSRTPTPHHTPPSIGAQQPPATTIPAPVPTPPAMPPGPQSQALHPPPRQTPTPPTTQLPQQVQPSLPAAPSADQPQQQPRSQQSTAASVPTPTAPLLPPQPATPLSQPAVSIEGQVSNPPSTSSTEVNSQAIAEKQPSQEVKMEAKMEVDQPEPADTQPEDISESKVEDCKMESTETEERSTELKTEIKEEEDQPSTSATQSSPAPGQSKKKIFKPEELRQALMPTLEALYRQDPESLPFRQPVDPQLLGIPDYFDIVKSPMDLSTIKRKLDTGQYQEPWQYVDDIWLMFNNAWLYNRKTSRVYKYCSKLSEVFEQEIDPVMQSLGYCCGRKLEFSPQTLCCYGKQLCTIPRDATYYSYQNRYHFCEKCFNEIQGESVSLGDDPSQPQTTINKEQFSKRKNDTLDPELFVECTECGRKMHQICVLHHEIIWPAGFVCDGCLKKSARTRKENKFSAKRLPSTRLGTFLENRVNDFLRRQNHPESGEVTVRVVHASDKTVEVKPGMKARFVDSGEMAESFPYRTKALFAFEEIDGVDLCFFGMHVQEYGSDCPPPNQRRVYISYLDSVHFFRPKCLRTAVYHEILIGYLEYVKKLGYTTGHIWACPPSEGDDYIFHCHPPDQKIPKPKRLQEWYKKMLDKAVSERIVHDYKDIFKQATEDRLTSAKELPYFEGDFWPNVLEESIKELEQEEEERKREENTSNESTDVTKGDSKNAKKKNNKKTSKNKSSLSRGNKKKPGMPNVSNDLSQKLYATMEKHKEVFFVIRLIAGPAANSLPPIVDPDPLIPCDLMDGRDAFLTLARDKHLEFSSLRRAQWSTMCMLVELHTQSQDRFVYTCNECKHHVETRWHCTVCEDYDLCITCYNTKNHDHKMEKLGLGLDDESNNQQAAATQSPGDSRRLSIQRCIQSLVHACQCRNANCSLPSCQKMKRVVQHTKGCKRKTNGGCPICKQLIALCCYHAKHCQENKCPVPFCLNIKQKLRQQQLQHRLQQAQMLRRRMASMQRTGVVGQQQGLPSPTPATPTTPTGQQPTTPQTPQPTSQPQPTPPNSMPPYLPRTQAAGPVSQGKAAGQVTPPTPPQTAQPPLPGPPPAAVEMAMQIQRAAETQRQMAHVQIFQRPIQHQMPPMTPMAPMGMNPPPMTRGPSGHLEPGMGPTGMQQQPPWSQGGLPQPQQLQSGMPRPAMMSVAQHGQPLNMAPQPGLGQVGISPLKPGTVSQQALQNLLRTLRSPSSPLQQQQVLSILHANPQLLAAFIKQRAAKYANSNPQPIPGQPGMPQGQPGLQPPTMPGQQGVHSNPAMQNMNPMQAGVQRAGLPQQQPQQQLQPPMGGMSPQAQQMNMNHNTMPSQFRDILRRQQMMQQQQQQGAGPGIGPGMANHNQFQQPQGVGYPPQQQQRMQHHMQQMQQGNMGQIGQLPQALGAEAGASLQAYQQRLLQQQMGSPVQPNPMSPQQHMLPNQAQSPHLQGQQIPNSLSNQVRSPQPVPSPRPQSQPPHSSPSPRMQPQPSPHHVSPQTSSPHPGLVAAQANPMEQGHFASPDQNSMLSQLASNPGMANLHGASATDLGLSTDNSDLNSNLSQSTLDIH
Procedure: Because JQAD1 interacted preferentially with both EP300 and CRBN, whether JQAD1 preferentially induces degradation of EP300 compared to CBP in MYCN-amplified neuroblastoma cells was examined. […] To further examine the specificity of JQAD1 for EP300, an analysis of the effects of JQAD1 in stable isotope labeling by amino acids in cell culture (SILAC)-labelled Kelly cells was performed (FIG. 3F). Kelly cells were cultured with SILAC media containing heavy or light-labelled arginine and lysine. Heavy labelled cells were treated with 500 nM JQAD1, and light-labelled cells treated with dimethyl sulfoxide (DMSO) for 24 h, prior to nuclear extraction and protein lysis. […] Protein abundance was then analyzed by mass spectrometry, to determine global changes in the nuclear proteome. […] To expand upon these findings, three NB cell lines, Kelly, NGP and SIMA, which have high levels of CRBN (e.g., protein or mRNA) (FIG. 8C), were treated with JQAD, and the effects on specific proteins were measured by western blotting. […] Peptides were detected, isolated, and fragmented to produce a tandem mass spectrum of specific fragment ions for each peptide. Peptide sequences and protein identity were determined by matching protein databases with the acquired fragmentation pattern by Sequest® (Thermo Fisher Scientific) (Eng et al. J. Am. Soc. Mass Spectrom. 5:976-89 (1994)). […]

[1] = tested on: super-enhancer regulated and CRC genes; assay: ERCC spike-in RNA-seq of xenograft tumor cells; format: in vivo, human
From the text: For in vivo analyses, tumors were removed from animals treated with either vehicle […] to filtering for single cells through a […] filter. Single cell suspensions were then solubilized in TRIzol™ (Ambion) as described above, with processing, including ERCC RNA spike in controls, treatment with RNAse-free DNAse I, and spin purification. Following preparation, there was sufficient material to proceed with RNAseq analysis for four vehicle control and three JQAD1 treated tumor specimen. Purified RNA samples were subjected to library construction with a low input RNA protocol followed by poly-adenylation preparation and sequencing using the Illumina NextSeq® 500 (paired end, 75 bp reads). Raw reads for RNA-seq of in vivo models were aligned first using hisat2 v2.1 in paired-end mode against the mm9 revision of the mouse genome to filter out contaminating mouse reads. Remaining reads were aligned to a reference genome containing the hg19 revision of the human reference and the sequences of ERCC spike-in probes. Expression was quantified using sorted BAMs, a gene reference built using ERCC sizes and RefSeq genes downloaded Jul. 15, 2017, and htseq-count with parameters -I gene_id -stranded=reverse -f bam -m intersection-strict. Read counts were converted to transcripts per million (TPM) and used for cell number-normalization. […]

C[C@H](N(Cc1ccc(F)cc1)C(=O)CN1C(=O)O[C@@]2(CCc3cc(NC(=O)CCCCCCCCCCCNc4ccc5c(c4)C(=O)N(C4CCC(=O)NC4=O)C5=O)ccc32)C1=O)C(F)(F)F (stereo partly drawn) [JQAD1, 12-((2-(2,6-dioxopiperidin-3-yl)-1,3-dioxoisoindolin-5-yl)amino)-N-((R)-3′-(2-((4-fluorobenzyl)((S)-1,1,1-trifluoropropan-2-yl)amino)-2-oxoethyl)-2′,4′-dioxo-2,3-dihydrospiro[indene-1,5′-oxazolidin]-5-yl)dodecanamide]
EP300 protein abundance (EP300): significantly decreased
expression of CRC genes and MYCN in tumors ([1]; 40 mg/Kg daily for 14 days): among the most downregulated genes
RNA expression of super-enhancer versus typical-enhancer regulated genes in tumor cells ([1]; 40 mg/Kg once daily, p<0.0001): preferential downregulation of genes regulated by super-enhancers compared with those regulated by typical enhancers
